System: BRCA^mut+ tumors
Experiment: Tumor response per RECIST v1.1 (ORR, DCR, DOR, PFS), BRCA^mut+ subgroup
Format: in vivo, human
Conditions: for Patients with reduced tumor size: BRCA^mut+ subgroup; for PFS, Median (95% CI): Kaplan-Meier
Description: The dose-expansion period included 3 populations: dose groups in which at least one patient achieved complete response (CR) or partial response (PR) per RECIST v1.1[16] and 1 dose group higher (evaluated for safety), as well as the dose group at the maximum tolerated dose (MTD)/recommended phase II dose (RP2D). Each of these groups included those patients in the respective dose-escalation group plus a planned additional 10 patients (approximately 20 patients in the MTD/RP2D group) with BRCA^mut+ solid tumors (ovarian, breast, or prostate cancer were preferred, and ovarian cancer could be BRCA wild type). Patients received senaparib monotherapy orally QD or BID (50-mg dose only) over each 3-week cycle until disease progression or unacceptable toxicity.
Safety was assessed by recording the incidence of dose-limiting toxicities (DLTs), and the incidence, nature, severity (graded per National Cancer Institute Common Terminology Criteria for Adverse Events version 4.03 [NCI CTCAE v4.03][18]), and relatedness of treatment-emergent adverse events (TEAEs). DLTs were predefined toxicities (Supplementary Table S2) recorded over the 7 days following the single-dose administration of senaparib and during the first treatment cycle (day 1-day 21) for each dose group in the dose-escalation period only. The MTD was defined as the maximum dose at which ≤1/6 patients experienced a DLT. Senaparib PK parameters were derived from blood samples collected from patients after the single administration, and at regular intervals during the first cycle of the dose-escalation and dose-expansion periods. Plasma concentrations of senaparib were determined using high-performance liquid chromatography-tandem mass spectrometry. Tumor response was assessed every 6 weeks per RECIST v1.1,[16] recording objective response rate (ORR), disease control rate (DCR), duration of response (DOR), and progression-free survival (PFS) by dose level for all patients and for those harboring BRCA^mut+ tumors.
There was no formal sample size calculation based on statistical hypothesis testing for this study; the planned enrolment was approximately 30-60 patients across the dose-escalation and dose-expansion cohorts. The actual number in the dose-escalation cohort was adjusted based on the number of dose cohorts required for the modified Fibonacci dose-escalation design and the determined MTD. Definitions for all analysis populations (safety, DLT, PK, and efficacy [intent-to-treat, ITT]) are provided in Supplementary Table S2. No statistical tests were performed; patient demographic and baseline characteristics, safety/tolerability, PK parameters, and efficacy were evaluated descriptively. ORR and DCR and their 95% CIs were calculated for each group using the exact probability method. Kaplan-Meier statistics were used to estimate DOR and PFS, and their 95% CIs for each dose group separately. Dose linearity was explored based on the single-dose data of area under the time-concentration curve (AUC) and maximum plasma concentration (Cmax) using the power model (Y = α × dose β) for the dose range 2-80 mg on a log-transformed scale. The following criterion was used to determine whether dose proportionality was met: if the (2-sided) 90% CI for β was wholly contained within the interval (1 + log(0.5)/log(r), 1 + log(2)/log(r)), then dose proportionality was supported. Here, r was defined as the ratio of the highest to lowest dose. All data analyses were carried out using SAS EG7.1 or higher or (for PK parameters) WinNonlin 7.0 or higher.

[1] = BRCA^mut+, 26 evaluable for tumor response
[2] = BRCA^mut+, 5 mg QD, PFS evaluable n 2
[3] = BRCA^mut+, 10 mg QD, PFS evaluable n 1
[4] = BRCA^mut+, 10 mg QD, evaluable n 1
[5] = BRCA^mut+, 20 mg QD, PFS evaluable n 3
[6] = BRCA^mut+, 20 mg QD, evaluable n 2
[7] = BRCA^mut+, 60 mg QD, PFS evaluable n 4
[8] = BRCA^mut+, 60 mg QD, evaluable n 4
[9] = BRCA^mut+, 80 mg QD, DOR evaluable n 3
[10] = BRCA^mut+, 80 mg QD, PFS evaluable n 6
[11] = BRCA^mut+, 80 mg QD, evaluable n 6
[12] = BRCA^mut+, 100 mg QD, DOR evaluable n 2
[13] = BRCA^mut+, 100 mg QD, PFS evaluable n 13
[14] = BRCA^mut+, 100 mg QD, evaluable n 11
[15] = BRCA^mut+, 120 mg QD, PFS evaluable n 2
[16] = BRCA^mut+, 120 mg QD, evaluable n 2
[17] = BRCA^mut+, Total, DOR evaluable n 7
[18] = BRCA^mut+, Total, PFS evaluable n 32
[19] = BRCA^mut+, Total, evaluable n 26

O=C(c1cc(Cn2c(=O)[nH]c(=O)c3c(F)cccc32)ccc1F)N1CCN(c2ncccn2)CC1 [Senaparib]
Median DOR (BRCA^mut+ patients, 95% CI, 39-NR): 169 days
Median PFS (BRCA^mut+ patients, 95% CI, 79-464): 215 days
Patients with reduced tumor size (non-ovarian (3/10)): 30.0%
Patients with reduced tumor size (ovarian cancer (10/16)): 62.5%
DCR [1]: 73.1%
ORR [1]: 26.9%
DOR: Events (BRCA^mut+, 2 mg QD, DOR evaluable n 0): 0 n (%)
PFS: Events (BRCA^mut+, 2 mg QD, PFS evaluable n 0): 0 (0) n (%)
DOR: Events (BRCA^mut+, 5 mg QD, DOR evaluable n 0): 0 n (%)
PFS: Events [2]: 2 (100) n (%)
PFS, Median (95% CI) [2]: 254.5 (45-464) days
DOR: Events (BRCA^mut+, 10 mg QD, DOR evaluable n 0): 0 n (%)
PFS: Events [3]: 1 (100) n (%)
PFS, Median (95% CI) [3]: 49 (49-49) days
Complete response [4]: 0 n (%)
DCR (complete response+partial response+stable disease) [4]: 0 n (%)
ORR (complete response+partial response) [4]: 0 (0) n (%)
Partial response [4]: 0 n (%)
Stable disease (≥42 days from cycle 1 day 1) [4]: 0 n (%)
DOR: Events (BRCA^mut+, 20 mg QD, DOR evaluable n 1): 0 n (%)
PFS: Events [5]: 1 (33.3) n (%)
PFS, Median (95% CI) [5]: – (39-NR)
Complete response [6]: 0 n (%)
DCR (complete response+partial response+stable disease) [6]: 1 (50.0) n (%)
ORR (complete response+partial response) [6]: 1 (50.0) n (%)
Partial response [6]: 1 (50.0) n (%)
Stable disease (≥42 days from cycle 1 day 1) [6]: 0 n (%)
DOR: Events (BRCA^mut+, 40 mg QD, DOR evaluable n 0): 0 n (%)
DOR: Events (BRCA^mut+, 50 mg BID, DOR evaluable n 0): 0 n (%)
PFS: Events (BRCA^mut+, 50 mg BID, PFS evaluable n 1): 0 (0) n (%)
DOR: Events (BRCA^mut+, 60 mg QD, DOR evaluable n 1): 0 n (%)
PFS: Events [7]: 2 (50.0) n (%)
PFS, Median (95% CI) [7]: 255 (127-NR) days
Complete response [8]: 0 n (%)
DCR (complete response+partial response+stable disease) [8]: 4 (100) n (%)
ORR (complete response+partial response) [8]: 1 (25.0) n (%)
Partial response [8]: 1 (25.0) n (%)
Stable disease (≥42 days from cycle 1 day 1) [8]: 3 (75.0) n (%)
DOR, Median (95% CI) [9]: 120 (39-169) days
DOR: Events [9]: 3 (100) n (%)
PFS: Events [10]: 5 (83.3) n (%)
PFS, Median (95% CI) [10]: 167 (40-216) days
Complete response [11]: 0 n (%)
DCR (complete response+partial response+stable disease) [11]: 5 (83.3) n (%)
ORR (complete response+partial response) [11]: 3 (50.0) n (%)
Partial response [11]: 3 (50.0) n (%)
Stable disease (≥42 days from cycle 1 day 1) [11]: 2 (33.3) n (%)
DOR, Median (95% CI) [12]: – (169-NR)
DOR: Events [12]: 1 (50.0) n (%)
PFS: Events [13]: 5 (38.5) n (%)
PFS, Median (95% CI) [13]: 289 (42-NR) days
Complete response [14]: 0 n (%)
DCR (complete response+partial response+stable disease) [14]: 8 (72.7) n (%)
ORR (complete response+partial response) [14]: 2 (18.2) n (%)
Partial response [14]: 2 (18.2) n (%)
Stable disease (≥42 days from cycle 1 day 1) [14]: 6 (54.5) n (%)
DOR: Events (BRCA^mut+, 120 mg QD, DOR evaluable n 0): 0 n (%)
PFS: Events [15]: 1 (50.0) n (%)
PFS, Median (95% CI) [15]: – (48-NR)
Complete response [16]: 0 n (%)
DCR (complete response+partial response+stable disease) [16]: 1 (50.0) n (%)
ORR (complete response+partial response) [16]: 0 (0) n (%)
Partial response [16]: 0 n (%)
Stable disease (≥42 days from cycle 1 day 1) [16]: 1 (50.0) n (%)
DOR, Median (95% CI) [17]: 169 (39-NR) days
DOR: Events [17]: 4 (57.1) n (%)
PFS: Events [18]: 17 (53.1) n (%)
PFS, Median (95% CI) [18]: 215 (79-464) days
Complete response [19]: 0 n (%)
DCR (complete response+partial response+stable disease) [19]: 19 (73.1) n (%)
ORR (complete response+partial response) [19]: 7 (26.9) n (%)
Partial response [19]: 7 (26.9) n (%)
Stable disease (≥42 days from cycle 1 day 1) [19]: 12 (46.2) n (%)
